The values below come from patent US10047076B2, “Halogen-substituted compounds” (BAYER CROPSCIENCE AKTIENGESELLSCHAFT, priority 2014, dated 2018).

As a reminder, the logP is a log measure of how a compound divides between an organic and an aqueous phase. A word on the chromatographic logP: it is lipophilicity estimated from chromatographic retention. Higher therefore signals higher lipophilicity.

Data set [1] is described as follows: log P determination by HPLC on reversed-phase column (C18), EEC Directive 79/831 Annex V.A8, acidic (formic acid). Type of data set: physicochemical. The note with it: HPLC method a), acetonitrile/water with formic acid. As for the experimental part:
^1 The stated mass is the peak of the isotope pattern of the [M+H]^+ ion of the highest intensity; if the [M-H]^- ion was detected, the stated mass is identified with ^2. ^2 The stated mass is the peak of the isotope pattern of the [M-H]^- ion of the highest intensity. ^a) Note regarding the determination of the log P values and mass detection: The determination of the given log P values was carried out in accordance with EEC Directive 79/831 Annex V.A8 by HPLC (High Performance Liquid Chromatography) on a reversed-phase column (C18). […] Mass detection is effected by means of an […] system. ^b) Note regarding the determination of the retention time and mass detection: The stated retention times were determined on a reversed-phase column (C18) Shimadzu LCMS 2020; 50*3.0 Shimadzu shim-pack XR-ODS 2.2 micron; mobile phase A: water (0.05% TFA); mobile phase B: acetonitrile; linear gradient from 5% acetonitrile to 95% acetonitrile in 6.00 min, then 95% acetonitrile for a further 1.1 min; oven temperature 40° C.; flow rate: 1.0 ml/min. ^c) Note regarding the determination of the retention time and mass detection: Instrument: Waters ACQUITY SQD UPLC system; column. Waters Acquity UPLC HSS T3 1.8μ 50×1 mm; mobile phase A: 1 l of water+0.25 ml of 99% strength formic acid, mobile phase B: 1 l of acetonitrile+0.25 ml of 99% strength formic acid; gradient: 0.0 min 90% A→1.2 min 5% A→2.0 min 5% A oven: 50° C.; flow rate: 0.40 ml/min; UV detection: 208-400 nm. ^d) Note regarding the determination of the retention time and mass detection: […] The determination of the given log P values was carried out in accordance with EEC Directive 79/831 Annex V.A8 by HPLC (High Performance Liquid Chromatography) on a reversed-phase column (C18). […] Mass detection is effected by means of an […] system.

The subject of data set [2] is Phaedon cochleariae. Description: Phaedon cochleariae spray test. The note with it: larvae on Chinese cabbage leaf discs, after 7 days.
Data set [3] relates to Boophilus microplus. Description: Boophilus microplus injection test. Type of data set: in vivo. The note with it: 20 μg/animal, engorged adult female ticks, after 7 days. As for the experimental part: (§1) Solvent: dimethyl sulphoxide
1 μl of the active compound solution is injected into the abdomen of 5 engorged adult female cattle ticks (Boophilus microplus). The animals are transferred into dishes and kept in a climate-controlled room.
Efficacy is assessed after 7 days by laying of fertile eggs. Eggs which are not visibly fertile are stored in a climate-controlled cabinet until the larvae hatch after about 42 days. An efficacy of 100% means that none of the ticks has laid any fertile eggs; 0% means that all the eggs are fertile.

Data set [4] relates to Ctenocephalides felis. Description: Ctenocephalides felis oral test. Type of data set: in vivo. The note with it: 100 ppm in citrated cattle blood, after 2 days.
Text: as §1
Dilution with citrated cattle blood gives the desired concentration.
About 20 unfed adult cat fleas (Ctenocephalides felis) are placed into a chamber which is closed at the top and bottom with gauze. A metal cylinder whose bottom end is closed with parafilm is placed onto the chamber. The cylinder contains the blood/active compound preparation, which can be imbibed by the fleas through the parafilm membrane.

The subject of data set [5] is Lucilia cuprina. Description: Lucilia cuprina test. Type of data set: in vivo. The note with it: 100 ppm, L1 larvae, after 2 days. As for the experimental part:
as §1
About 20 L1 larvae of the Australian sheep blowfly (Lucilia cuprina) are transferred into a test vessel containing minced horsemeat and the active compound preparation of the desired concentration.
After 2 days, the kill in % is determined.

Data set [6] relates to Musca domestica. Description: Musca domestica test. Type of data set: in vivo. The conditions noted are these: 100 ppm, adult houseflies, after 2 days.
Text: as §1
Vessels containing a sponge treated with sugar solution and the active compound preparation of the desired concentration are populated with 10 adult houseflies (Musca domestica).

Data set [7] has as its system Tetranychus urticae. In words: Tetranychus urticae spray test, OP-resistant (bean leaf discs). The note with it: 500 g/ha, after 6 days. Type of data set: in vivo. As for the experimental part: (§2) Solvent: 78.0 parts by weight of acetone
After 6 days, the efficacy in % is determined.

In data set [8] the test system is Spodoptera frugiperda. Description: Spodoptera frugiperda spray test. Type of data set: in vivo. The conditions noted are these: caterpillars on maize leaf discs, after 7 days.
Text: as §2

In turn, `CC(C)n1nc(-c2ccc(Cl)c(C(=O)NC3CC3)c2)nc1-c1c(C(F)(F)F)c(C(F)(F)C(F)(F)F)nn1C` [Ibg-13] had a logP in data set [1] of 4.35. Further, the efficacy in data set [2] (500 g/ha) was 100%.

With `CCn1nc(-c2c(C(F)(F)F)c(C(F)(F)C(F)(F)F)nn2C)nc1-c1ccc(Cl)c(C(=O)NC2CC2)c1` [Ibh-4], the logP in data set [1] came to 3.99. Also, in data set [3], the “efficacy (laying of fertile eggs)” value was found to be 100%. Also, the “efficacy (kill in %)” value in data set [4] is recorded as 90%; in data set [5], 100%; in data set [6] it was 90%. Moreover, the efficacy in data set [7] and in data set [2] (500 g/ha) was 100% throughout.

As for `Cn1nc(-c2ccc(Cl)c(C(=O)NC3CC3)c2)nc1-c1c(C(F)(F)F)c(C(F)(F)C(F)(F)F)nn1C` [Ibg-7], the logP in data set [1] is reported as 3.80. The same compound gave an efficacy in data set [2] (500 g/ha) of 100%.

Take `Cn1nc(C(F)(F)C(F)(F)F)c(C(F)(F)F)c1-c1nc(-c2ccc(Cl)c(C(=O)NC3CC3)c2)ns1` [Ibd-3, 2-chloro-N-cyclopropyl-5-{5-[1-methyl-3-(pentafluoroethyl)-4-(trifluoromethyl)-1H-pyrazol-5-yl]-1,2,4-thiadiazol-3-yl}benzamide]: in data set [2] (500 g/ha), the efficacy turned out to be 100%.

In turn, `Cn1nc(C(F)(F)C(F)(F)F)c(C(F)(F)F)c1-c1noc(-c2ccc(Cl)c(C(=O)NC3CC3)c2)n1` [Ibe-1, 2-chloro-N-cyclopropyl-5-{3-[1-methyl-3-(pentafluoroethyl)-4-(trifluoromethyl)-1H-pyrazol-5-yl]-1,2,4-oxadiazol-5-yl}benzamide] returned a chromatographic logP in data set [1] of 4.16. Further, the efficacy in data set [8] (500 g/ha) and in data set [2] (500 g/ha) was 100% each time.

As for `CC(C)n1nc(-c2ccc(Cl)c(C(=O)NCc3ccccc3)c2)nc1-c1c(C(F)(F)F)c(C(F)(F)C(F)(F)F)nn1C` [Ibg-8], in data set [1], the logP worked out at 4.93. The efficacy in data set [2] (500 g/ha) is recorded as 100%.

Compound `Cn1nc(-c2c(C(F)(F)F)c(C(F)(F)C(F)(F)F)nn2C)nc1-c1ccc(Cl)c(C(=O)NCC(F)(F)F)c1` [Ibh-3] yielded a logP in data set [1] of 3.99. The efficacy in data set [8] (500 g/ha) worked out at 100%; in data set [7] it was 90%; in data set [2] (500 g/ha) it was 100%.

With `CCn1nc(-c2c(C(F)(F)F)c(C(F)(F)C(F)(F)F)nn2C)nc1-c1ccc(Cl)c(C(=O)NCC(F)(F)F)c1` [Ibh-5], the logP in data set [1] stood at 4.32. Moreover, in data set [2] (500 g/ha), the efficacy worked out at 100%.

Regarding `Cn1nc(C(F)(F)C(F)(F)F)c(C(F)(F)F)c1-c1nnc(-c2cccc(C(=O)NC3CC3)c2)s1` [Iaj-1, N-cyclopropyl-3-{5-[1-methyl-3-(pentafluoroethyl)-4-(trifluoromethyl)-1H-pyrazol-5-yl]-1,3,4-thiadiazol-2-yl}benzamide], the chromatographic logP in data set [1] is 3.72. Besides, the efficacy in data set [2] (500 g/ha) is given as 100%.

As for `Cn1nc(-c2c(C(F)(F)F)c(C(F)(F)C(F)(F)F)nn2C)nc1-c1ccc(Cl)c(C(=O)NC2CC2)c1` [Ibh-8], in data set [1], the logP is listed as 3.67. Besides, the results for the efficacy in data set [8] (500 g/ha) and in data set [2] (500 g/ha) were 83% and 100%, respectively.

Turning to `CCn1nc(-c2ccc(Cl)c(C(=O)NC3CC3)c2)nc1-c1c(C(F)(F)F)c(C(F)(F)C(F)(F)F)nn1C` [Ibg-5], the logP in data set [1] amounted to 4.09. Moreover, the efficacy in data set [7] is 90%; in data set [2] (500 g/ha), 100%.

Turning to `Cn1nc(C(F)(F)C(F)(F)F)c(C(F)(F)F)c1-c1cc(-c2ccc(Cl)c(C(=O)NC3(C(F)(F)F)CC3)c2)no1` [Iap-5], the logP in data set [1] worked out at 4.55. Also, in data set [3], the “efficacy (laying of fertile eggs)” value is on record as 100%. Also, the “efficacy (kill in %)” value in data set [4], in data set [5] and in data set [6] was 100% each time. In data set [2] (100 g/ha), this compound returned an efficacy of 100%.

In data set [1], `Cn1nc(C(F)(F)C(F)(F)F)c(C(F)(F)F)c1-c1nc(-c2ccc(Cl)c(C(=O)NC3CC3)c2)no1` [Ibf-3] showed a logP of 4.26. In data set [3], the “efficacy (laying of fertile eggs)” value was found to be 100%. The “efficacy (kill in %)” value amounted to 100% in data set [4], 100% in data set [5] and 80% in data set [6]. The efficacy in data set [8] (500 g/ha) and in data set [2] (500 g/ha) was 100% in each case.

`Cn1nc(C(F)(F)C(F)(F)F)c(C(F)(F)F)c1-c1ccc(-c2ccc(Cl)c(C(=O)NC3(C#N)CC3)c2)o1` [Iaa-1] had a logP in data set [1] of 4.08. The “efficacy (laying of fertile eggs)” value in data set [3] is 100%. The “efficacy (kill in %)” value in data set [4], in data set [5] and in data set [6] was 100% in each case. Also, the efficacy in data set [8] (100 g/ha) and in data set [2] (100 g/ha) was 100% in each case.

In the case of `CN(C(=O)c1cccc(-c2cc(-c3c(C(F)(F)F)c(C(F)(F)C(F)(F)F)nn3C)nn2C)c1)C1CC1` [Iax-1, N-cyclopropyl-3-[1,2′-dimethyl-5′-(pentafluoroethyl)-4′-(trifluoromethyl)-1H,2′H-3,3′-bipyrazol-5-yl]-N-methylbenzamide], the chromatographic logP in data set [1] stood at 4.13. In data set [2] (100 g/ha), this compound registered an efficacy of 100%.

Turning to `Cn1nc(C(F)(F)C(F)(F)F)c(C(F)(F)F)c1-c1nnc(-c2ccc(Cl)c(C(=O)Nc3ccccc3)c2)[nH]1` [Ibi-4], in data set [1], the logP is listed as 4.13.

`Cn1nc(-c2ccc(Cl)c(C(=O)Nc3ccccc3)c2)nc1-c1c(C(F)(F)F)c(C(F)(F)C(F)(F)F)nn1C` [Ibg-14] displayed a logP in data set [1] of 4.56.

For the compound `CCn1nc(-c2c(C(F)(F)F)c(C(F)(F)C(F)(F)F)nn2C)nc1-c1ccc(Cl)c(C(=O)NCc2ccccc2)c1` [Ibh-10], the logP in data set [1] is 4.59.

Regarding `Cn1nc(C(F)(F)C(F)(F)F)c(C(F)(F)F)c1-c1noc(-c2ccc(Cl)c(C(=O)Nc3ccc(F)cc3)c2)n1` [Ibe-3], the logP in data set [1] was determined as 4.91. Moreover, in data set [2] (500 g/ha), the efficacy is on record as 100%.

As to `Cn1nc(C(F)(F)C(F)(F)F)c(C(F)(F)F)c1-c1ncc(-c2cccc(C(=O)NC3(C#N)CC3)c2)s1` [Iaq-1, N-(1-cyanocyclopropyl)-3-{2-[1-methyl-3-(pentafluoroethyl)-4-(trifluoromethyl)-1H-pyrazol-5-yl]-1,3-thiazol-5-yl}benzamide], the chromatographic logP in data set [1] was found to be 3.93. Also, the efficacy in data set [2] (100 g/ha) turned out to be 100%.

Consider `Cn1nc(C(F)(F)C(F)(F)F)c(C(F)(F)F)c1-c1noc(-c2ccc(Cl)c(C(=O)NCc3ccccc3)c2)n1` [Ibe-2], for which the logP in data set [1] is on record as 4.76.

Take `CCn1nc(-c2ccc(Cl)c(C(=O)NCC(F)(F)F)c2)nc1-c1c(C(F)(F)F)c(C(F)(F)C(F)(F)F)nn1C` [Ibg-6]: the logP in data set [1] was 4.41.

`Cn1nc(C(F)(F)C(F)(F)F)c(C(F)(F)F)c1-c1nnc(-c2ccc(Cl)c(C(=O)NCC(F)(F)F)c2)[nH]1` [Ibi-2] registered a logP in data set [1] of 3.73.

Turning to `CC(C)n1nc(-c2c(C(F)(F)F)c(C(F)(F)C(F)(F)F)nn2C)nc1-c1ccc(Cl)c(C(=O)NC2CC2)c1` [Ibh-6], the logP in data set [1] amounted to 4.39. Further, the efficacy in data set [2] (500 g/ha) stood at 100%.

Take `CCn1nc(-c2ccc(Cl)c(C(=O)NCc3ccccc3)c2)nc1-c1c(C(F)(F)F)c(C(F)(F)C(F)(F)F)nn1C` [Ibg-9]: the logP in data set [1] is 4.71. Also, in data set [2] (500 g/ha), the efficacy is given as 100%.

As to `CC(C)n1nc(-c2c(C(F)(F)F)c(C(F)(F)C(F)(F)F)nn2C)nc1-c1ccc(Cl)c(C(=O)Nc2ccccc2)c1` [Ibh-12], the logP in data set [1] was found to be 5.23.

`Cn1nc(C(F)(F)C(F)(F)F)c(C(F)(F)F)c1-c1cc(-c2ccc(Cl)c(C(=O)NCC(=O)NCC(F)(F)F)c2)no1` [Iap-6] registered a logP in data set [1] of 3.87. The compound further gave an efficacy in data set [2] (100 g/ha) of 100%.
